{"source": "patent US6737383B1", "about": "“Herbicidal oxadiazolidines” (priority 1999, dated 2004)", "key": {"[1]": {"test_system": "purple nutsedge", "experiment": "Test B pre/postemergence purple nutsedge", "type": "in vivo, Cyperus rotundus", "details": "Rate 62 g/ha", "in_short": "(§1)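 Test chemicals in a non-phytotoxic solvent mixture with surfactant were sprayed preemergence onto planted seeds and postemergence onto plants 2 to 18 cm tall (1- to 4-leaf stage). After twelve to sixteen days in a greenhouse, injury was visually rated against untreated controls from 0 (no effect) to 10 (complete control).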"}, "[2]": {"test_system": "giant foxtail", "experiment": "Test B pre/postemergence giant foxtail", "type": "in vivo, Setaria faberii", "in_short": "as §1"}, "[3]": {"test_system": "wild oat", "experiment": "Test B pre/postemergence wild oat", "type": "in vivo, Avena fatua", "in_short": "as §1"}, "[4]": {"test_system": "velvetleaf", "experiment": "Test B pre/postemergence velvetleaf", "type": "in vivo, Abutilon theophrasti", "in_short": "as §1"}, "[5]": {"test_system": "bedstraw", "experiment": "Test B pre/postemergence bedstraw", "type": "in vivo, Galium aparine", "in_short": "as §1"}, "[6]": {"test_system": "cocklebur", "experiment": "Test B pre/postemergence cocklebur", "type": "in vivo, Xanthium strumarium", "in_short": "as §1"}, "[7]": {"test_system": "surinam grass", "experiment": "Test B pre/postemergence surinam grass", "type": "in vivo, Brachiaria decumbens", "in_short": "as §1"}, "[8]": {"test_system": "wheat", "experiment": "Test B pre/postemergence wheat", "type": "in vivo, Triticum aestivum", "in_short": "as §1"}, "[9]": {"test_system": "pigweed", "experiment": "Test B pre/postemergence pigweed", "type": "in vivo, Amaranthus retroflexus", "in_short": "as §1"}, "[10]": {"test_system": "sugar beet", "experiment": "Test B pre/postemergence sugar beet", "type": "in vivo, Beta vulgaris", "in_short": "as §1"}, "[11]": {"test_system": "morningglory", "experiment": "Test B pre/postemergence morningglory", "type": "in vivo, Ipomoea hederacea", "in_short": "as §1"}, "[12]": {"test_system": "crabgrass", "experiment": "Test B pre/postemergence crabgrass", "type": "in vivo, Digitaria sanguinalis", "in_short": "as §1"}, "[13]": {"test_system": "blackgrass", "experiment": "Test B pre/postemergence blackgrass", "type": "in vivo, Alopecurus myosuroides", "in_short": "as §1"}, "[14]": {"test_system": "corn", "experiment": "Test B pre/postemergence corn", "type": "in vivo, Zea mays", "in_short": "as §1"}, "[15]": {"test_system": "rape", "experiment": "Test B pre/postemergence rape", "type": "in vivo, Brassica napus", "in_short": "as §1"}, "[16]": {"test_system": "soybean", "experiment": "Test B pre/postemergence soybean", "type": "in vivo, Glycine max", "in_short": "as §1"}, "[17]": {"details": "Postemergence, Rate 62 g/ha, scale of 0 to 10, 0 is no effect, 10 is complete control"}, "[18]": {"details": "Postemergence, Rate 125 g/ha, scale 0 to 10, 0 is no effect, 10 is complete control"}, "[19]": {"details": "Postemergence, Rate 500 g/ha, scale 0 to 10, 0 is no effect, 10 is complete control"}, "[20]": {"details": "Preemergence, Rate 62 g/ha, scale of 0 to 10 where 0 is no effect and 10 is complete control"}, "[21]": {"details": "Preemergence, Rate 125 g/ha, scale 0 to 10, 0 is no effect, 10 is complete control"}, "[22]": {"details": "Preemergence, Rate 500 g/ha, scale of 0 to 10 where 0 is no effect and 10 is complete control"}, "[23]": {"details": "Postemergence, Rate 250 g/ha, scale 0 to 10"}, "[24]": {"details": "Preemergence, Rate 250 g/ha, scale 0 to 10, 0 is no effect, 10 is complete control"}, "[25]": {"details": "Preemergence, Rate 500 g/ha, scale 0 to 10, 0 is no effect, 10 is complete control"}}, "data": [{"molecule": "CCN(CC)C(=O)Cn1c(=O)on(C(=O)N(c2ccc(F)cc2F)C(C)C)c1=O", "note": "[Compound 512]", "values": [{"measurement": "Nutsedge plant response rating", "setting": "[1]; Postemergence, scale of 0 to 10, 0 is no effect, 10 is complete control", "value": 0}, {"measurement": "Plant response rating, Nutsedge", "setting": "[1]; Preemergence, scale of 0 to 10 where 0 is no effect and 10 is complete control", "value": 0}, {"measurement": "Giant foxtail plant response rating", "setting": "[2]; [17]", "value": 2}, {"measurement": "Giant foxtail plant response rating", "setting": "[2]; [18]", "value": 3}, {"measurement": "Plant response rating, Giant foxtail", "setting": "[2]; [19]", "value": 8}, {"measurement": "Plant response rating, Giant foxtail", "setting": "[2]; [20]", "value": 5}, {"measurement": "Giant foxtail plant response rating", "setting": "[2]; [21]", "value": 9}, {"measurement": "Giant foxtail plant response rating", "setting": "[2]; [22]", "value": 10}, {"measurement": "Wild oats plant response rating", "setting": "[3]; [17]", "value": 0}, {"measurement": "Wild oats plant response rating", "setting": "[3]; [18]", "value": 0}, {"measurement": "Plant response rating, Wild oats", "setting": "[3]; [19]", "value": 1}, {"measurement": "Plant response rating, Wild oats", "setting": "[3]; [20]", "value": 2}, {"measurement": "Wild oats plant response rating", "setting": "[3]; [21]", "value": 2}, {"measurement": "Wild oats plant response rating", "setting": "[3]; [22]", "value": 10}, {"measurement": "Velvetleaf plant response rating", "setting": "[4]; [17]", "value": 0}, {"measurement": "Velvetleaf plant response rating", "setting": "[4]; [18]", "value": 0}, {"measurement": "Plant response rating, Velvetleaf", "setting": "[4]; [19]", "value": 1}, {"measurement": "Plant response rating, Velvetleaf", "setting": "[4]; [20]", "value": 0}, {"measurement": "Velvetleaf plant response rating", "setting": "[4]; [21]", "value": 0}, {"measurement": "Velvetleaf plant response rating", "setting": "[4]; [22]", "value": 0}, {"measurement": "Bedstraw plant response rating", "setting": "[5]; [23]", "value": 7}, {"measurement": "Plant response rating, Bedstraw", "setting": "[5]; [20]", "value": 0}, {"measurement": "Bedstraw plant response rating", "setting": "[5]; [21]", "value": 0}, {"measurement": "Bedstraw plant response rating", "setting": "[5]; [24]", "value": 0}, {"measurement": "Bedstraw plant response rating", "setting": "[5]; [25]", "value": 3}, {"measurement": "Cocklebur plant response rating", "setting": "[6]; [17]", "value": 0}, {"measurement": "Cocklebur plant response rating", "setting": "[6]; [18]", "value": 2}, {"measurement": "Cocklebur plant response rating", "setting": "[6]; [23]", "value": 3}, {"measurement": "Plant response rating, Cocklebur", "setting": "[6]; [19]", "value": 7}, {"measurement": "Plant response rating, Cocklebur", "setting": "[6]; [20]", "value": 0}, {"measurement": "Cocklebur plant response rating", "setting": "[6]; [21]", "value": 0}, {"measurement": "Cocklebur plant response rating", "setting": "[6]; [24]", "value": 0}, {"measurement": "Cocklebur plant response rating", "setting": "[6]; [22]", "value": 0}, {"measurement": "B. signalgrass plant response rating", "setting": "[7]; [17]", "value": 0}, {"measurement": "B. signalgrass plant response rating", "setting": "[7]; [18]", "value": 1}, {"measurement": "B. signalgrass plant response rating", "setting": "[7]; Postemergence, Rate 250 g/ha, scale 0 to 10, 0 no effect, 10 complete control", "value": 4}, {"measurement": "Plant response rating, B. signalgrass", "setting": "[7]; [19]", "value": 5}, {"measurement": "Plant response rating, B. signalgrass", "setting": "[7]; [20]", "value": 3}, {"measurement": "B. signalgrass plant response rating", "setting": "[7]; [21]", "value": 8}, {"measurement": "B. signalgrass plant response rating", "setting": "[7]; [24]", "value": 10}, {"measurement": "B. signalgrass plant response rating", "setting": "[7]; [25]", "value": 10}, {"measurement": "Wheat plant response rating", "setting": "[8]; [17]", "value": 0}, {"measurement": "Wheat plant response rating", "setting": "[8]; [18]", "value": 0}, {"measurement": "Plant response rating, Wheat", "setting": "[8]; [19]", "value": 2}, {"measurement": "Plant response rating, Wheat", "setting": "[8]; [20]", "value": 0}, {"measurement": "Wheat plant response rating", "setting": "[8]; [21]", "value": 2}, {"measurement": "Wheat plant response rating", "setting": "[8]; [22]", "value": 6}, {"measurement": "Redroot pigweed plant response rating", "setting": "[9]; [17]", "value": 1}, {"measurement": "Redroot pigweed plant response rating", "setting": "[9]; [18]", "value": 7}, {"measurement": "Plant response rating, Redroot pigweed", "setting": "[9]; [19]", "value": 9}, {"measurement": "Plant response rating, Redroot pigweed", "setting": "[9]; [20]", "value": 3}, {"measurement": "Redroot pigweed plant response rating", "setting": "[9]; [21]", "value": 9}, {"measurement": "Redroot pigweed plant response rating", "setting": "[9]; [22]", "value": 10}, {"measurement": "Sugarbeets plant response rating", "setting": "[10]; [17]", "value": 0}, {"measurement": "Sugarbeets plant response rating", "setting": "[10]; [18]", "value": 0}, {"measurement": "Plant response rating, Sugarbeets", "setting": "[10]; [19]", "value": 7}, {"measurement": "Plant response rating, Sugarbeets", "setting": "[10]; [20]", "value": 0}, {"measurement": "Sugarbeets plant response rating", "setting": "[10]; [21]", "value": 0}, {"measurement": "Sugarbeets plant response rating", "setting": "[10]; [22]", "value": 5}, {"measurement": "Morningglory plant response rating", "setting": "[11]; [17]", "value": 5}, {"measurement": "Morningglory plant response rating", "setting": "[11]; [18]", "value": 5}, {"measurement": "Plant response rating, Morningglory", "setting": "[11]; [19]", "value": 7}, {"measurement": "Plant response rating, Morningglory", "setting": "[11]; [20]", "value": 0}, {"measurement": "Morningglory plant response rating", "setting": "[11]; [21]", "value": 0}, {"measurement": "Morningglory plant response rating", "setting": "[11]; [22]", "value": 0}, {"measurement": "Crabgrass plant response rating", "setting": "[12]; [17]", "value": 2}, {"measurement": "Crabgrass plant response rating", "setting": "[12]; [18]", "value": 2}, {"measurement": "Crabgrass plant response rating", "setting": "[12]; [23]", "value": 5}, {"measurement": "Plant response rating, Crabgrass", "setting": "[12]; [19]", "value": 9}, {"measurement": "Plant response rating, Crabgrass", "setting": "[12]; [20]", "value": 3}, {"measurement": "Crabgrass plant response rating", "setting": "[12]; [21]", "value": 7}, {"measurement": "Crabgrass plant response rating", "setting": "[12]; [22]", "value": 9}, {"measurement": "Blackgrass plant response rating", "setting": "[13]; [17]", "value": 2}, {"measurement": "Blackgrass plant response rating", "setting": "[13]; [18]", "value": 3}, {"measurement": "Blackgrass plant response rating", "setting": "[13]; [23]", "value": 6}, {"measurement": "Plant response rating, Blackgrass", "setting": "[13]; [19]", "value": 6}, {"measurement": "Plant response rating, Blackgrass", "setting": "[13]; [20]", "value": 0}, {"measurement": "Blackgrass plant response rating", "setting": "[13]; [21]", "value": 2}, {"measurement": "Blackgrass plant response rating", "setting": "[13]; [24]", "value": 9}, {"measurement": "Blackgrass plant response rating", "setting": "[13]; [22]", "value": 10}, {"measurement": "Corn plant response rating", "setting": "[14]; [17]", "value": 0}, {"measurement": "Corn plant response rating", "setting": "[14]; [18]", "value": 0}, {"measurement": "Corn plant response rating", "setting": "[14]; [23]", "value": 0}, {"measurement": "Plant response rating, Corn", "setting": "[14]; [19]", "value": 0}, {"measurement": "Plant response rating, Corn", "setting": "[14]; [20]", "value": 0}, {"measurement": "Corn plant response rating", "setting": "[14]; [21]", "value": 0}, {"measurement": "Corn plant response rating", "setting": "[14]; [22]", "value": 3}, {"measurement": "Rape plant response rating", "setting": "[15]; [17]", "value": 0}, {"measurement": "Rape plant response rating", "setting": "[15]; [18]", "value": 0}, {"measurement": "Plant response rating, Rape", "setting": "[15]; [19]", "value": 0}, {"measurement": "Plant response rating, Rape", "setting": "[15]; [20]", "value": 0}, {"measurement": "Rape plant response rating", "setting": "[15]; [21]", "value": 0}, {"measurement": "Rape plant response rating", "setting": "[15]; [22]", "value": 5}, {"measurement": "Soybean plant response rating", "setting": "[16]; [17]", "value": 4}, {"measurement": "Soybean plant response rating", "setting": "[16]; [18]", "value": 4}, {"measurement": "Plant response rating, Soybean", "setting": "[16]; [19]", "value": 7}, {"measurement": "Plant response rating, Soybean", "setting": "[16]; [20]", "value": 0}, {"measurement": "Soybean plant response rating", "setting": "[16]; [21]", "value": 0}, {"measurement": "Soybean plant response rating", "setting": "[16]; [22]", "value": 0}]}]}
